Test results taken from patent publication US5340818A, “Methods and compositions for inhibiting tumor cell growth” (priority 1993, dated 1994).
Several values for one entry are separate records, joined by “and”; a condition that tells them apart may be missing. Identical values can stand only once. Like-named read-outs stand apart in the source and are kept apart here.

What was measured:
B82 leukemia = conditions: ip, 37.5 × 1 × 7 mg/kg/day; cited from earlier work
Adrenocarcinoma 755 = conditions: ip, 30 × 1 × 10 mg/kg/day; cited from earlier work
Mecca lymphosarcoma = conditions: ip, 30 × 1 × 10 mg/kg/day; cited from earlier work
Ehrlich ascites = conditions: ip, 30 × 1 × 10 mg/kg/day; cited from earlier work
AKR leukemia = conditions: ip, 28 × 1 × 10 mg/kg/day; cited from earlier work
DNA = conditions: cited from earlier work
Shionogi carcinoma 115 = conditions: ip, 36 × 1 × 9 mg/kg/day; cited from earlier work
tumors = conditions: literature, cited from earlier work
Sarcoma 180 = conditions: ip, 30 × 1 × 10 mg/kg/day; cited from earlier work
X5563 myeloma = conditions: ip, 30 × 1 × 8 mg/kg/day; cited from earlier work
S91 melanoma = conditions: ip, 36 × 1 × 9 mg/kg/day; cited from earlier work
L5178Y cells = conditions: cultured L5178Y cells; cited from earlier work
P1534 leukemia = conditions: ip, 30 × 1 × 10 mg/kg/day; cited from earlier work
[1] = test system: Ridgeway osteogenic sarcoma; conditions: ip, 48 × 1 × 9 mg/kg/day; cited from earlier work
BREI = test: Survival time evaluation, BREI (ip) in BDF1 mice; type: in vivo, mouse; parameters: Survival Time, individual mice / AST: unit not given here; conditions: for AST / Day 7 AWC / N/T (15 day survivors/total mice) / Survival Time, individual mice / % ILS: day 1, QDX4; for % ILS: 25% or greater indicates activity
Description: 0.2 ML BREI (ip) ca. 10 6 cells IN BDF1 (FEMALE) 19-21 g
DILUENT - COCKTAIL DIL 1:10 dextrose
SCHEDULE - DAY 1, QDX4 bid (ip) DAY 1, QDX4 per os

L1210/Dx cells = test: Cross-resistance studies: growth inhibition of doxorubicin-resistant L1210/Dx cells; type: cell-based
L1210 leukemia = L1210 leukemia survival time evaluation in BDF1 mice; conditions: for Day 6 AWC / MST / N/T (nine day survivors/total mice) / Survival Time, individual mice / % ILS (increase in lifespan): day 1, QDX4 ip; for % ILS (increase in lifespan): 25% or greater indicates activity

COc1cc2c(c3c1c(=O)c1ccccc1n3C)C=CC(C)(C)O2 [Compound 1, Acronycine]
Percent activity (B82 leukemia): 61%
Percent activity (Adrenocarcinoma 755): 40(10) Percent
Percent activity (Mecca lymphosarcoma): 63(7) Percent
Percent activity (Ehrlich ascites): 0(1) Percent
Percent activity (AKR leukemia): 78(5) Percent
interaction with DNA, in words (DNA): did not interact with DNA
Percent activity (Shionogi carcinoma 115): 100(7) Percent
antitumor activity, in words (tumors): broad spectrum of antitumor activity
antitumor activity, in words (tumors; listed as acronycine): effective against a wide range of neoplasms
Percent activity (Sarcoma 180): 40(9) Percent
Percent activity (X5563 myeloma): 100(8) Percent
Percent activity (S91 melanoma): 100(4) Percent
inhibition of incorporation of extracellular nucleosides into DNA and RNA, in words (L5178Y cells): inhibit the incorporation of extracellular nuclosides into the DNA and RNA
Percent activity (P1534 leukemia): 0%
Percent activity [1]: 100(10) Percent

COc1c(OC)c(OC)c2c(c1O)c(=O)c1ccc(O)c(OC)c1n2C [Compound 31, Glyfoline]
AST (BREI; 100 mg/kg bid ip): 14.2
Day 7 AWC (BREI; 100 mg/kg bid ip): +1.0 g
N/T (15 day survivors/total mice) (BREI; 100 mg/kg bid ip): 0/5
Survival Time, individual mice (BREI; 100 mg/kg bid ip): 13 and 14 and 17
% ILS (BREI; 100 mg/kg bid ip): 18%
AST (BREI; 500 mg/kg p.o.): > 19
Day 7 AWC (BREI; 500 mg/kg p.o.): +0.8 g
N/T (15 day survivors/total mice) (BREI; 500 mg/kg p.o.): 1/5
Survival Time, individual mice (BREI; 500 mg/kg p.o.): 13 and 14 and 15 and > 40
% ILS (BREI; 500 mg/kg p.o.): > 62%
tumorfree survival (one mouse) (BREI; oral route): > 40 days
(IC50) 0/(IC50) Dx (L1210/Dx cells; L1210/0 and L1210/Dx): 1.58
IC50 (L1210/Dx cells; Mus musculus, L1210/Dx (doxorubicin resistant)): 3.31 µM
Day 6 AWC (L1210 leukemia; 6.25 mg/kg): +1.8 g
MST (L1210 leukemia; 6.25 mg/kg): 7.0
N/T (nine day survivors/total mice) (L1210 leukemia; 6.25 mg/kg): 0/2
Survival Time, individual mice (L1210 leukemia; 6.25 mg/kg): 7
% ILS (increase in lifespan) (L1210 leukemia; 6.25 mg/kg): 0%
Day 6 AWC (L1210 leukemia; 12.5 mg/kg): +2.0 g
MST (L1210 leukemia; 12.5 mg/kg): 8.0
N/T (nine day survivors/total mice) (L1210 leukemia; 12.5 mg/kg): 0/2
Survival Time, individual mice (L1210 leukemia; 12.5 mg/kg): 8
% ILS (increase in lifespan) (L1210 leukemia; 12.5 mg/kg): 14%
antileukemic activity, in words (L1210 leukemia; L1210, BDF mice, low doses, ip): some activity
